Data reported in ChEMBL document CHEMBL1201862, “PubChem BioAssay data set” (2004).
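Assay format: 96-well plates, 48-hour exposure. GI50: concentration for 50% inhibition of growth.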 Calls of active or inactive are those of the source. Rule as the data show it: active = GI50 up to about 1.1 µM and inactive = higher.

Assays:
Assay in all cases: NCI-60 cell line screen, 48 h
SNB-19 = test system: SNB-19
COLO 205 = test system: COLO 205
ACHN = test system: ACHN
A549 = test system: A549
Hs-578T = test system: Hs-578T
M14 = test system: M14
MDA-MB-231 = test system: MDA-MB-231
HOP-92 = test system: HOP-92
T47D = test system: T47D
OVCAR-4 = test system: OVCAR-4
TK-10 = test system: TK-10
786-0 = test system: 786-0
HCT-116 = test system: HCT-116
RPMI-8226 = test system: RPMI-8226
OVCAR-3 = test system: OVCAR-3
U-251 = test system: U-251
MDA-N = test system: MDA-N
SK-MEL-5 = test system: SK-MEL-5
BT-549 = test system: BT-549

Row | SMILES | GI50 (SNB-19) | GI50 (COLO 205) | GI50 (ACHN) | GI50 (A549) | GI50 (Hs-578T) | GI50 (M14) | GI50 (MDA-MB-231) | GI50 (HOP-92) | GI50 (T47D) | GI50 (OVCAR-4) | GI50 (TK-10) | GI50 (786-0) | GI50 (HCT-116) | GI50 (RPMI-8226) | GI50 (OVCAR-3) | GI50 (U-251) | GI50 (MDA-N) | GI50 (SK-MEL-5) | GI50 (BT-549)
1 | CCOC(=O)CNC(=O)C(C)NC(=O)C(NC(=O)CC(c1ncc[nH]1)c1ncc[nH]1)C(C)CC (stereo not given) | > 100 µM (inactive) | > 100 µM (inactive) | > 100 µM (inactive) | > 100 µM (inactive) | > 100 µM (inactive) | 84.9 µM (inactive) | > 100 µM (inactive) | > 100 µM (inactive) | > 100 µM (inactive) | 63.7 µM (inactive) | > 100 µM (inactive) | > 100 µM (inactive) | > 100 µM (inactive) | > 100 µM (inactive) | > 100 µM (inactive) | > 100 µM (inactive) | > 100 µM (inactive) |  | 
2 | COc1ccc(/C=C2/SC(c3c(O)ccc4ccccc34)N(NC(=O)CCCCCCCCC(=O)NN3C(=O)/C(=C\c4ccc(OC)c(OC)c4)SC3c3c(O)ccc4ccccc34)C2=O)cc1OC (stereo not given) | 9.2 µM (inactive) | 3.15 µM (inactive) | 0.755 µM (active) | 1.44 µM (inactive) |  | 0.897 µM (active) |  | 1.09 µM (active) | 2.19 µM (inactive) | 1.64 µM (inactive) | 10.4 µM (inactive) | 0.519 µM (active) | 0.345 µM (active) | 0.995 µM (active) | 0.33 µM (active) | 1.26 µM (inactive) | 12.8 µM (inactive) | 0.318 µM (active) | 
3 | O=C(Nc1ccc(F)cc1)c1cc2c(cc1Cl)Sc1nccn1S2(=O)=O | 40.1 µM (inactive) | > 100 µM (inactive) | 63.1 µM (inactive) | > 100 µM (inactive) | 30.8 µM (inactive) | > 100 µM (inactive) | 38.2 µM (inactive) |  | 45.9 µM (inactive) | 55.7 µM (inactive) |  | 28.2 µM (inactive) | 35.6 µM (inactive) |  | 84.5 µM (inactive) | 16.3 µM (inactive) | > 100 µM (inactive) | 14.9 µM (inactive) | 
4 | CN(NC(=O)/C(=C/c1ccc(Cl)cc1)NC(=O)c1ccccc1)c1cn[nH]c(=O)c1Cl | > 100 µM (inactive) | > 100 µM (inactive) | > 100 µM (inactive) | > 100 µM (inactive) | > 100 µM (inactive) | > 100 µM (inactive) | > 100 µM (inactive) | > 100 µM (inactive) |  | > 100 µM (inactive) | > 100 µM (inactive) | > 100 µM (inactive) | > 100 µM (inactive) | 17.4 µM (inactive) | 87.1 µM (inactive) | 40.9 µM (inactive) | > 100 µM (inactive) | 73.5 µM (inactive) | 
5 | CCC(C)[C@H]1C(=O)N=C(N)N1C(=O)OCc1ccccc1 (stereo not given in full) | > 100 µM (inactive) | > 100 µM (inactive) | > 100 µM (inactive) |  |  |  | > 100 µM (inactive) |  |  | > 100 µM (inactive) | > 100 µM (inactive) | > 100 µM (inactive) | > 100 µM (inactive) | > 100 µM (inactive) | > 100 µM (inactive) | > 100 µM (inactive) | > 100 µM (inactive) | > 100 µM (inactive) | > 100 µM (inactive)
6 | C/C(Cl)=N\OC(=O)Nc1ccccc1C(F)(F)F | > 100 µM (inactive) | 21.6 µM (inactive) | 18.1 µM (inactive) | > 100 µM (inactive) | > 100 µM (inactive) |  | 22.6 µM (inactive) | 6.61 µM (inactive) | 80.2 µM (inactive) | 13.8 µM (inactive) | 15.4 µM (inactive) | 17.9 µM (inactive) | 33.4 µM (inactive) | 21 µM (inactive) | 15.8 µM (inactive) | > 100 µM (inactive) | 16.4 µM (inactive) | > 100 µM (inactive) | 
7 | O=C(CCN1CCN2c3ccccc3CCC2C1)c1ccc(F)cc1 (stereo not given) | 23.2 µM (inactive) | 22 µM (inactive) | 19 µM (inactive) | > 100 µM (inactive) | 35.6 µM (inactive) | 49.7 µM (inactive) | 37.7 µM (inactive) | 33.9 µM (inactive) | 20 µM (inactive) | 20 µM (inactive) | 29.6 µM (inactive) | 18.9 µM (inactive) | 37.5 µM (inactive) | 28.9 µM (inactive) | 32.1 µM (inactive) | 27.8 µM (inactive) |  | 22.5 µM (inactive) | 25.1 µM (inactive)
8 | O=C1CCCSC(=O)N1Cc1ccccc1 | > 100 µM (inactive) | > 100 µM (inactive) | > 100 µM (inactive) | > 100 µM (inactive) | > 100 µM (inactive) | > 100 µM (inactive) | > 100 µM (inactive) | > 100 µM (inactive) | > 100 µM (inactive) | > 100 µM (inactive) | > 100 µM (inactive) | > 100 µM (inactive) | > 100 µM (inactive) |  | > 100 µM (inactive) |  | > 100 µM (inactive) | > 100 µM (inactive) | 
9 | Nc1ccc(C2NC(=O)Cc3c2ccc2ccccc32)cc1 (stereo not given) | > 100 µM (inactive) | 76.2 µM (inactive) | 58.1 µM (inactive) | 33.2 µM (inactive) | 46.5 µM (inactive) | 89.9 µM (inactive) |  | > 100 µM (inactive) | 34.1 µM (inactive) | 40.3 µM (inactive) | > 100 µM (inactive) |  | 81.1 µM (inactive) | > 100 µM (inactive) | 26.1 µM (inactive) | > 100 µM (inactive) | 67.5 µM (inactive) | 61.8 µM (inactive) | 
10 | Cc1cc2c(cc1C(=O)CCC(=O)O)CC1(C2)Cc2cc(C)c(C(=O)CCC(=O)O)cc2C1 | > 100 µM (inactive) | > 100 µM (inactive) | > 100 µM (inactive) | > 100 µM (inactive) | > 100 µM (inactive) | > 100 µM (inactive) | > 100 µM (inactive) | > 100 µM (inactive) | > 100 µM (inactive) | > 100 µM (inactive) | > 100 µM (inactive) | > 100 µM (inactive) | > 100 µM (inactive) | > 100 µM (inactive) | > 100 µM (inactive) | > 100 µM (inactive) | > 100 µM (inactive) | > 100 µM (inactive) | 
11 | O=C(C/C=C/c1ccccc1)c1ccccc1 |  | 22.5 µM (inactive) | 16.6 µM (inactive) | 10.8 µM (inactive) | 21.8 µM (inactive) | 16.2 µM (inactive) |  | 29 µM (inactive) | 16.9 µM (inactive) |  | 23.2 µM (inactive) | 21.6 µM (inactive) | 17.4 µM (inactive) | 28.2 µM (inactive) | 41.6 µM (inactive) | 14.6 µM (inactive) | 19.8 µM (inactive) | 19.5 µM (inactive) | 
12 | O=C(NN=C1NCCCCN1)Nc1ccc(Cl)cc1 | > 100 µM (inactive) | > 100 µM (inactive) | > 100 µM (inactive) | > 100 µM (inactive) | > 100 µM (inactive) |  |  | > 100 µM (inactive) | > 100 µM (inactive) | > 100 µM (inactive) | > 100 µM (inactive) | > 100 µM (inactive) | > 100 µM (inactive) | 45.1 µM (inactive) | > 100 µM (inactive) | > 100 µM (inactive) |  | > 100 µM (inactive) | > 100 µM (inactive)
13 | COc1ccc2c(c1)C(=O)CC(C(N)=O)C2 (stereo not given) | > 100 µM (inactive) | > 100 µM (inactive) | > 100 µM (inactive) | > 100 µM (inactive) | > 100 µM (inactive) | > 100 µM (inactive) | > 100 µM (inactive) | > 100 µM (inactive) | > 100 µM (inactive) | > 100 µM (inactive) | > 100 µM (inactive) | > 100 µM (inactive) | > 100 µM (inactive) | > 100 µM (inactive) | > 100 µM (inactive) | > 100 µM (inactive) |  | > 100 µM (inactive) | > 100 µM (inactive)
14 | Cc1cccc(C)c1NC(=O)CCC(=O)NNC(=O)c1cc(O)c2ccccc2c1 | 23.9 µM (inactive) | 18.7 µM (inactive) | 37.2 µM (inactive) | 64.7 µM (inactive) |  | 31.4 µM (inactive) |  | > 100 µM (inactive) |  |  | 70.1 µM (inactive) | 38 µM (inactive) | 31.9 µM (inactive) | 56.8 µM (inactive) | 24.8 µM (inactive) | 48.8 µM (inactive) |  | 32.3 µM (inactive) | 
15 | CC(=O)NC1CC2Oc3ccc(C)cc3C(C)(O2)C1O (stereo not given) | > 100 µM (inactive) | > 100 µM (inactive) | > 100 µM (inactive) | > 100 µM (inactive) |  | > 100 µM (inactive) |  |  |  |  | > 100 µM (inactive) | > 100 µM (inactive) | > 100 µM (inactive) | > 100 µM (inactive) | > 100 µM (inactive) | > 100 µM (inactive) |  |  | 
16 | O=C(c1ccc2ccccc2c1O)N1CCCCC1 | > 100 µM (inactive) | > 100 µM (inactive) | > 100 µM (inactive) |  | > 100 µM (inactive) | > 100 µM (inactive) | > 100 µM (inactive) | 78.9 µM (inactive) | 71.3 µM (inactive) | > 100 µM (inactive) | > 100 µM (inactive) | > 100 µM (inactive) | 65.8 µM (inactive) | 27.4 µM (inactive) |  | > 100 µM (inactive) |  | 34 µM (inactive) | 
17 | O=C1c2cc3c(cc2CC12Cc1cc4c(cc1C2)CCC4)CCC3 | > 100 µM (inactive) | > 100 µM (inactive) | > 100 µM (inactive) | > 100 µM (inactive) | > 100 µM (inactive) | > 100 µM (inactive) | > 100 µM (inactive) | > 100 µM (inactive) | > 100 µM (inactive) | > 100 µM (inactive) | > 100 µM (inactive) | > 100 µM (inactive) | > 100 µM (inactive) | > 100 µM (inactive) | > 100 µM (inactive) | > 100 µM (inactive) | > 100 µM (inactive) | > 100 µM (inactive) | 
